Bridge positions count the residues as written; N and C are the ends. Square brackets hold non-standard residues; d marks the D form. Peptide text beside a SMILES is read from it.

For 23 compounds, IC50 results are on record in paper PMC8113725, “Structure–activity relationship of ipglycermide binding to phosphoglycerate mutases” (The Journal of Biological Chemistry, 2021).

The experiment addresses D. immitis iPGM (Dirofilaria immitis, UniProt F4ZE01). Put plainly: biochemical. To be noted: Di iPGM Ave IC50 (M).

One may read the IC50 as the midpoint of a concentration-inhibition curve. Regarding `CC(C)C[C@H](NC(=O)[C@H](CC(C)C)NC(=O)[C@H](Cc1ccc(O)cc1)NC(=O)[C@@H]1CSCC(=O)N[C@H](Cc2ccc(O)cc2)C(=O)N[C@@H](CC(=O)O)C(=O)N[C@@H](Cc2ccc(O)cc2)C(=O)N2CCC[C@H]2C(=O)NCC(=O)N[C@@H](CC(=O)O)C(=O)N[C@@H](Cc2ccc(O)cc2)C(=O)N1)C(N)=O` [Ce-2d Y11L], the IC50 stood at 2.43e-07 M.
For `CC(C)C[C@H](NC(=O)[C@H](Cc1ccc(O)cc1)NC(=O)[C@@H]1CSCC(=O)N[C@H](Cc2ccc(O)cc2)C(=O)N[C@@H](CC(=O)O)C(=O)N[C@@H](Cc2ccc(O)cc2)C(=O)N2CCC[C@H]2C(=O)N[C@@H](CCC(N)=O)C(=O)N[C@@H](CC(=O)O)C(=O)N[C@@H](Cc2ccc(O)cc2)C(=O)N1)C(=O)N[C@@H](Cc1ccc(O)cc1)C(N)=O` [Ce-2d G5Q] the value was 5.99e-06 M; for `CC(C)C[C@H](NC(=O)[C@H](Cc1ccc(O)cc1)NC(=O)[C@@H]1CSCC(=O)N[C@H](Cc2ccc(O)cc2)C(=O)N[C@@H](CC(=O)O)C(=O)N[C@@H](Cc2ccc(O)cc2)C(=O)N2CCC[C@H]2C(=O)NCC(=O)N[C@@H](CC(=O)O)C(=O)N[C@@H](CO)C(=O)N1)C(=O)N[C@@H](Cc1ccc(O)cc1)C(N)=O` [Ce-2d Y7S], 1.78e-07 M.
`CC(C)C[C@H](NC(=O)[C@H](Cc1ccc(O)cc1)NC(=O)[C@@H]1CSCC(=O)N[C@H](Cc2ccc(O)cc2)C(=O)N[C@@H](CCC(=O)O)C(=O)N[C@@H](Cc2ccc(O)cc2)C(=O)N2CCC[C@H]2C(=O)NCC(=O)N[C@@H](CC(=O)O)C(=O)N[C@@H](Cc2ccc(O)cc2)C(=O)N1)C(=O)N[C@@H](Cc1ccc(O)cc1)C(N)=O` [Ce-2d D2E] returned an IC50 of 9.99e-08 M.
The compound `COc1ccc(C[C@@H]2NC(=O)[C@H](CC(=O)O)NC(=O)CNC(=O)[C@@H]3CCCN3C(=O)[C@H](Cc3ccc(O)cc3)NC(=O)[C@H](CC(=O)O)NC(=O)[C@@H](Cc3ccc(O)cc3)NC(=O)CSC[C@@H](C(=O)N[C@@H](Cc3ccc(O)cc3)C(=O)N[C@@H](CC(C)C)C(=O)N[C@@H](Cc3ccc(O)cc3)C(N)=O)NC2=O)cc1` [Ce-2d Y7(4OMe)F] returned an IC50 of 6.79e-08 M.
To `CC(C)C[C@H](NC(=O)[C@H](Cc1ccc(O)cc1)NC(=O)[C@@H]1CSCC(=O)N[C@H](Cc2ccc(O)cc2)C(=O)N[C@@H](CC(=O)O)C(=O)N[C@@H](Cc2ccc(O)cc2)C(=O)N2CCC[C@H]2C(=O)NCC(=O)N[C@@H](CC(=O)O)C(=O)N[C@@H](Cc2ccc(O)cc2)C(=O)N1)C(=O)N[C@@H](Cc1ccc(O)cc1)C(=O)O` [Ce-2d Y11COOH] belongs 7.75e-07 M; to `COc1ccc(C[C@H](NC(=O)[C@@H]2CSCC(=O)N[C@H](Cc3ccc(O)cc3)C(=O)N[C@@H](CC(=O)O)C(=O)N[C@@H](Cc3ccc(O)cc3)C(=O)N3CCC[C@H]3C(=O)NCC(=O)N[C@@H](CC(=O)O)C(=O)N[C@@H](Cc3ccc(O)cc3)C(=O)N2)C(=O)N[C@@H](CC(C)C)C(=O)N[C@@H](Cc2ccc(O)cc2)C(N)=O)cc1` [Ce-2d Y9(4OMe)F], 2.04e-06 M; to `CC(C)C[C@H](NC(=O)[C@H](Cc1ccc(O)cc1)NC(=O)[C@@H]1CSCC(=O)N[C@H](Cc2ccc(O)cc2)C(=O)N[C@@H](CC(=O)O)C(=O)N[C@@H](Cc2ccccc2)C(=O)N2CCC[C@H]2C(=O)NCC(=O)N[C@@H](CC(=O)O)C(=O)N[C@@H](Cc2ccc(O)cc2)C(=O)N1)C(=O)N[C@@H](Cc1ccc(O)cc1)C(N)=O` [Ce-2d Y3F], 3.2e-06 M.
Consider `CC(C)C[C@H](NC(=O)[C@H](Cc1ccc(O)cc1)NC(=O)[C@@H]1CSCC(=O)N[C@H](Cc2ccc(F)cc2)C(=O)N[C@@H](CC(=O)O)C(=O)N[C@@H](Cc2ccc(O)cc2)C(=O)N2CCC[C@H]2C(=O)NCC(=O)N[C@@H](CC(=O)O)C(=O)N[C@@H](Cc2ccc(O)cc2)C(=O)N1)C(=O)N[C@@H](Cc1ccc(O)cc1)C(N)=O` [Ce-2d Y1D(4F)F], for which the IC50 was 3.7e-08 M.
To `CC(C)C[C@H](NC(=O)[C@H](Cc1ccc(O)cc1)NC(=O)[C@@H]1CSCC(=O)N[C@H](Cc2ccc(O)cc2)C(=O)NCC(=O)N[C@@H](Cc2ccc(O)cc2)C(=O)N2CCC[C@H]2C(=O)NCC(=O)N[C@@H](CC(=O)O)C(=O)N[C@@H](Cc2ccc(O)cc2)C(=O)N1)C(=O)N[C@@H](Cc1ccc(O)cc1)C(N)=O` [Ce-2d D2G] belongs 1.32e-06 M; to `CC(C)C[C@H](NC(=O)[C@H](Cc1ccc(O)cc1)NC(=O)[C@@H]1CSCC(=O)N[C@H](Cc2ccc(O)cc2)C(=O)N[C@@H](CC(=O)O)C(=O)N[C@@H](Cc2c[nH]c3ccccc23)C(=O)N2CCC[C@H]2C(=O)NCC(=O)N[C@@H](CC(=O)O)C(=O)N[C@@H](Cc2ccc(O)cc2)C(=O)N1)C(=O)N[C@@H](Cc1ccc(O)cc1)C(N)=O` [Ce-2d Y3W], 7.09e-06 M.
Take `CC(C)C[C@H](NC(=O)[C@H](Cc1ccc(O)cc1)NC(=O)[C@@H]1CSCC(=O)N[C@H](Cc2ccc(O)cc2)C(=O)N[C@@H](CC(=O)O)C(=O)N[C@@H](Cc2ccc(O)cc2)C(=O)N2CCC[C@H]2C(=O)NCC(=O)N[C@@H](CC(=O)O)C(=O)N[C@@H](Cc2ccc(O)cc2)C(=O)N1)C(=O)N[C@@H](Cc1ccc(F)cc1)C(N)=O` [Ce-2d Y11(4F)F]: the IC50 was found to be 7.11e-08 M.
To `CC(C)C[C@H](NC(=O)[C@H](Cc1ccc(O)cc1)NC(=O)[C@@H]1CSCC(=O)N[C@H](Cc2ccc(O)cc2)C(=O)N[C@@H](CC(=O)O)C(=O)N[C@@H](Cc2ccccc2)C(=O)N2CCC[C@H]2C(=O)NCC(=O)N[C@@H](CC(=O)O)C(=O)N[C@@H](Cc2ccc(O)cc2)C(=O)N1)C(=O)N[C@@H](Cc1ccc(O)cc1)C(=O)NCC(=O)N[C@H](C(=O)N[C@@H](CS)C(N)=O)[C@@H](C)O` [Ce-2 Y3F] ({CH2CO}-[dY]DFPGDYCYLYGTC-NH2; thioether N-8) belongs 2.42e-09 M.
For `CC(C)C[C@H](NC(=O)[C@H](Cc1ccc(F)cc1)NC(=O)[C@@H]1CSCC(=O)N[C@H](Cc2ccc(O)cc2)C(=O)N[C@@H](CC(=O)O)C(=O)N[C@@H](Cc2ccc(O)cc2)C(=O)N2CCC[C@H]2C(=O)NCC(=O)N[C@@H](CC(=O)O)C(=O)N[C@@H](Cc2ccc(O)cc2)C(=O)N1)C(=O)N[C@@H](Cc1ccc(O)cc1)C(N)=O` [Ce-2d Y9(4F)F] the value was 3.33e-07 M; for `CC(C)C[C@H](NC(=O)[C@H](Cc1ccc(O)cc1)NC(=O)[C@@H]1CSCC(=O)N[C@@H](Cc2ccc(F)cc2)C(=O)N[C@@H](CC(=O)O)C(=O)N[C@@H](Cc2ccc(O)cc2)C(=O)N2CCC[C@H]2C(=O)NCC(=O)N[C@@H](CC(=O)O)C(=O)N[C@@H](Cc2ccc(O)cc2)C(=O)N1)C(=O)N[C@@H](Cc1ccc(O)cc1)C(N)=O` [Ce-2d Y1(4F)F], 5.35e-08 M.
To `CC(C)C[C@H](NC(=O)[C@H](Cc1ccccc1)NC(=O)[C@@H]1CSCC(=O)N[C@H](Cc2ccc(O)cc2)C(=O)N[C@@H](CC(=O)O)C(=O)N[C@@H](Cc2ccc(O)cc2)C(=O)N2CCC[C@H]2C(=O)NCC(=O)N[C@@H](CC(=O)O)C(=O)N[C@@H](Cc2ccc(O)cc2)C(=O)N1)C(=O)N[C@@H](Cc1ccc(O)cc1)C(N)=O` [Ce-2d Y9F] belongs 1.43e-05 M; to `CC(C)C[C@H](NC(=O)[C@H](Cc1ccc(O)cc1)NC(=O)[C@@H]1CSCC(=O)N[C@H](Cc2ccc(O)cc2)C(=O)N[C@@H](CC(=O)O)C(=O)N[C@@H](Cc2ccc(O)cc2)C(=O)N[C@@H](C)C(=O)NCC(=O)N[C@@H](CC(=O)O)C(=O)N[C@@H](Cc2ccc(O)cc2)C(=O)N1)C(=O)N[C@@H](Cc1ccc(O)cc1)C(N)=O` [Ce-2d P4A], 7.94e-08 M; to `CC(C)C[C@H](NC(=O)[C@H](Cc1ccc(O)cc1)NC(=O)[C@@H]1CSCC(=O)N[C@H](Cc2ccc(O)cc2)C(=O)N[C@@H](CC(=O)O)C(=O)N[C@@H](Cc2ccc(F)cc2)C(=O)N2CCC[C@H]2C(=O)NCC(=O)N[C@@H](CC(=O)O)C(=O)N[C@@H](Cc2ccc(O)cc2)C(=O)N1)C(=O)N[C@@H](Cc1ccc(O)cc1)C(N)=O` [Ce-2d Y3(4F)F], 1.48e-07 M.
As to `CC(C)C[C@H](NC(=O)[C@H](Cc1ccc(O)cc1)NC(=O)[C@@H]1CSCC(=O)N[C@H](Cc2ccc(O)cc2)C(=O)N[C@@H](CC(=O)O)C(=O)N[C@@H](Cc2ccc(O)cc2)C(=O)N2CCC[C@H]2C(=O)NCC(=O)N[C@@H](CC(=O)O)C(=O)N[C@@H](Cc2ccc(O)cc2)C(=O)N1)C(=O)N[C@@H](Cc1ccccc1)C(N)=O` [Ce-2d Y11F], the IC50 was 9.89e-08 M.
For `CC(C)[C@H](NC(=O)[C@H](Cc1ccc(O)cc1)NC(=O)[C@@H]1CSCC(=O)N[C@H](Cc2ccc(O)cc2)C(=O)N[C@@H](CC(=O)O)C(=O)N[C@@H](Cc2ccc(O)cc2)C(=O)N2CCC[C@H]2C(=O)NCC(=O)N[C@@H](CC(=O)O)C(=O)N[C@@H](Cc2ccc(O)cc2)C(=O)N1)C(=O)N[C@@H](Cc1ccc(O)cc1)C(N)=O` [Ce-2d L10V] the value was 1.93e-06 M; for `CC(C)C[C@H](NC(=O)[C@H](Cc1ccc(O)cc1)NC(=O)[C@@H]1CSCC(=O)N[C@H](Cc2ccc(O)cc2)C(=O)N[C@@H](C(C)C)C(=O)N[C@@H](Cc2ccc(O)cc2)C(=O)N2CCC[C@H]2C(=O)NCC(=O)N[C@@H](CC(=O)O)C(=O)N[C@@H](Cc2ccc(O)cc2)C(=O)N1)C(=O)N[C@@H](Cc1ccc(O)cc1)C(N)=O` [Ce-2d D2V], 5.77e-07 M.
To `CC(C)C[C@H](NC(=O)[C@H](Cc1ccc(O)cc1)NC(=O)[C@@H]1CSCC(=O)N[C@H](Cc2ccc(O)cc2)C(=O)N[C@@H](CC(=O)O)C(=O)N[C@@H](Cc2ccc(F)cc2)C(=O)N2CCC[C@H]2C(=O)NCC(=O)N[C@@H](CC(=O)O)C(=O)N[C@@H](Cc2ccccc2)C(=O)N1)C(=O)N[C@@H](Cc1ccc(O)cc1)C(=O)NCC(=O)N[C@H](C(=O)N[C@@H](CS)C(N)=O)[C@@H](C)O` belongs 1.41e-09 M; to `CC(C)C[C@H](NC(=O)[C@H](Cc1ccc(O)cc1)NC(=O)[C@@H]1CSCC(=O)N[C@H](Cc2ccc(O)cc2)C(=O)N[C@@H](CC(=O)O)C(=O)N[C@@H](Cc2ccc(O)cc2)C(=O)N2CCC[C@H]2C(=O)NCC(=O)N[C@@H](CC(N)=O)C(=O)N[C@@H](Cc2ccc(O)cc2)C(=O)N1)C(=O)N[C@@H](Cc1ccc(O)cc1)C(N)=O` [Ce-2d D6N], 6.18e-06 M.
